SMILES strings stand for the structures.

The record followed here is patent US8394431B2, “Composition of extracts from plants and the use thereof in prophylaxis or treatment of metabolism disorder of blood lipid” (priority 2008, dated 2013).

Assay [1] relates to hypercholesterolemic patients. Nature of the assay: Clinical validation in hyperlipemia patients: blood lipids and efficacy rate. Conditions: patients n = 30, one tablet twice a day, 2 months. Format: in vivo, human. The protocol: 60 cases with hyperlipemia treated by FTZEC were analyzed, using the tablets obtained in Experiment 1. The experiment was confirmed according to Principles for Clinical Study of New Chinese Medicines in hyperlipemia, Ministry of Health of the People's Republic of China. 60 cases were in-patients or out-patients with hyperlipidemia diagnosed according to diagnostic criteria (1985), of which 40 cases were outpatients and 20 cases were in-patients; the patients were randomly divided into two groups, the treatment group and the control group. […] All patients accepted hyperlipidemia education, diet control, and regular exercise. […] 5.2 Efficiency standard of blood lipid Clinical control: the experimental examination returned to normal. Marked effective: the blood lipid detection achieved any one of the following indexes: […] Effective: the blood lipid detection achieved any one of the following indexes: […] Note: when determine the efficacy of the complicated hyperlipidemia, if the two indicators were not consistent, the lower efficacy was determined as the final result.

Assay [2] relates to Dietary hyperlipidemia New-Zealand female rabbits. Kind of assay: Lipid metabolism of hyperlipidemia New-Zealand female rabbit model. Format: in vivo. The conditions noted are these: hyperlipidemia unsexed female rabbits, dose 3 mg/kg, gavage, 12 weeks; for HDL-C: model 0.871 ± 0.30; for TG: model 3.98 ± 0.79; for LDL-C: model 11.63 ± 2.30; for TC: model 33.92 ± 3.49; for Ox-LDL: plasma ELISA, model 1.63 ± 0.30. The source says: Purebred New Zealand female rabbits were unsexed and fed with 0.5% cholesterol diet, and intravenously injected with bovine serum albumin to establish the model. The experimental animals were 49 New Zealand Angora purebred female rabbits, 1.8-2.2 kg, 3-4 months old which were provided by Guangdong Province Experimental Animal Center. […] In the sham-operated group, the sham operation was confirmed (cutting a small piece of fat tissues around the ovary), without removing the ovaries. The rabbits were given ordinary commercial feed (120-150 g/d) after surgery. […] In the compound Fufang tiaozhi FTZ group (equal to five times of clinical adult daily dose) and other administration groups, the rabbits were administrated with drugs by gavage. The control group and the model group were fed and administrated by gavage with same volume of normal saline. The body weights were examined at 12 weeks of the experiment. 2 ml blood was taken by the ear artery for blood lipid measurement. The rabbits were fasted for 16 h before each blood sampling. […] The total cholesterol, triglyceride, HDLC and LDLC were detected by automatic biochemical analyzer and the steps were carried out according to the kit instructions. The OX-LDL in plasma was measured by ELISA, according to kit instructions.
Background: In an ELISA, binding on a coated surface is turned into a signal by an enzyme label.

The target of another assay is T1, HMG-CoA reductase (Rattus norvegicus, UniProt P51639).
T1 construct: The rats liver cells microsomes were prepared into HMG-CoA reductase solution; from tissue; host or cells: rat liver cell microsomes
T1 sequence (P51639 1-887): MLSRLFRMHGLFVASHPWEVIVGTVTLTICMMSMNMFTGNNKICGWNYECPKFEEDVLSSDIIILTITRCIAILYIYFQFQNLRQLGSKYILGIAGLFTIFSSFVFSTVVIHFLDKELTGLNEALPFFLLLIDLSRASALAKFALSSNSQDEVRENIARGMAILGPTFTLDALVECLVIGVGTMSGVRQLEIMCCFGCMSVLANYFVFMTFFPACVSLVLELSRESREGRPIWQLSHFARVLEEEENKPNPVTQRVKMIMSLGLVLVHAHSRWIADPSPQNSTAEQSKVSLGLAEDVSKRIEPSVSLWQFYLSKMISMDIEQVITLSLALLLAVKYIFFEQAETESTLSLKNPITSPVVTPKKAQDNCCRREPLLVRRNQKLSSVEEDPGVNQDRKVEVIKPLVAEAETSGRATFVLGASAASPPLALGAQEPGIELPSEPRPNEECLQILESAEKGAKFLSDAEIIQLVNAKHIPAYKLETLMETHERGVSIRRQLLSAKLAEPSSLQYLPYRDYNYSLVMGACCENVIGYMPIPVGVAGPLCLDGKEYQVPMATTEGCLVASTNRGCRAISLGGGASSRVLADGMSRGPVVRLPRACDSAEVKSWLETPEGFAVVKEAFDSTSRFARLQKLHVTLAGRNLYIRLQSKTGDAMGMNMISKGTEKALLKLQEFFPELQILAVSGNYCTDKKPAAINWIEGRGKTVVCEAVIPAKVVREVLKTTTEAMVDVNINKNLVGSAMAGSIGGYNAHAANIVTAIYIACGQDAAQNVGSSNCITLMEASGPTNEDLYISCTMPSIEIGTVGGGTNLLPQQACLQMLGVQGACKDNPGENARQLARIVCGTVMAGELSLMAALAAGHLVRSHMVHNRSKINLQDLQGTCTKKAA
Kind of assay: Inhibition of HMG-CoA reductase activity (rat liver cell microsomes). Format: biochemical, rats. The protocol: Test the effects of various FTZEC conbination in vitro experiment on inhibiting HMGCoA reductase activity and calculate the IC50 of the composition of extracts from plants on inhibition of HMGCoA reductase and compare with pravastatin.
The rats liver cells microsomes were prepared into HMG-CoA reductase solution. The activities of the HMG-CoA reductase were determined by literature method. The enzyme activity in each group was respectively determined to calculate the IC50 (μg/ml) of FTZEC on HMG-CoA reductase activity.

The subject of assay [3] is Dietary hyperlipidemia rats. Kind of assay: Blood lipid of dietary hyperlipemia model in rats. Format: in vivo, SD rats. The conditions noted are these: serum, dose 3 mg/kg, 8 weeks; for HDL-C: high lipid control 0.71 ± 0.30; for LDL-C: high lipid control 1.43 ± 0.30; for TC: high lipid control 3.32 ± 0.49. The protocol:
Observe the effects of different doses of FTZEC on the serum TC, TG, LDL-C, and HDL-C of hyperlipemia rats.
In addition to ordinary feed in control group, other groups were given high fat emulsion in 10 ml/kg every morning by gavage beside the ordinary feed, and given corresponding drugs 4 hours after feeding, in which the normal group and the model groups were given equal amount of normal saline, administrated for continuous 8 weeks. These animals were fasted for 1 d, when water was given, in the next morning, the blood was taken from orbital veniplex after the last administration, centrifuged and separated the serum to test the TC, TG, HDL-C, LDL-C respectively.

Assay [4] deals with L-O2 Lipoprotein Lipase of Liver Cells (LPL). Nature of the assay: LPL activity in L-O2 hepatocytes (colorimetric kit). Format: cell-based, human. The conditions noted are these: 50.0 μg/ml, normal 12.63 ± 0.67. On the procedure:
The L-O2 human normal liver cells were cultured in routine way, various concentrations of FTZCE were respectively added after cells fusion, continuously cultured the cells for a certain time followed by collecting cells to prepare cell homogenates. Using LPL/HL detection kit (Nanjing Jiancheng Biotechnology Research Institute), the LPL/HL activity was detected by colorimetric method to research the effects of various composition of extracts from plants conbination on LPL activity and compare the enzyme activity of hepatocyte LPL/HL under the action of different concentrations of FTZEC. The gene expressions of hepatocyte LPL/HL were determined by RT-PCR method to observe the affects of FTZEC on the hepatocyte LPL/HL gene expression.

As usually defined, the IC50 is the concentration that gives 50% inhibition. Low readings indicate higher potency, high ones lower potency. As to `CC[C@H](C)C(=O)O[C@H]1C[C@H](O)C=C2C=C[C@H](C)[C@H](CC[C@@H](O)C[C@@H](O)CC(=O)O)[C@H]21` [Pravastatin], in assay [1], the “Effective Cases” value came to 15, the “Effective Rate %” value was 50.0%, the “Invalid Cases” value was 4 and the “Invalid Rate %” value came out at 13.3%. In assay [1], the “Marked effective Cases” value turned out to be 11, the “Marked effective Rate %” value is listed as 36.7% and the “Total effective rate %” value is recorded as 86.7%. In assay [2], this compound showed an HDL-C of 1.36 ± 0.28 mmol/L, a TG of 2.08 ± 0.82 mmol/L, an LDL-C of 10.29 ± 2.27 mmol/L and a TC of 12.69 ± 3.62 mmol/L. In assay [2], this compound displayed an Ox-LDL of 1.29 ± 0.27 mmol/L. The IC50 against HMG-CoA reductase was 4.36 µM.

On to `CC[C@H](C)C(=O)O[C@H]1C[C@@H](C)C=C2C=C[C@H](C)[C@H](CC[C@@H]3C[C@@H](O)CC(=O)O3)[C@H]21` [Lovastatin], for which, in assay [3], the HDL-C is reported as 0.96 ± 0.26 mmol/L, the LDL-C stood at 0.91 ± 0.25 mmol/L and the TC was found to be 2.29 ± 0.32 mmol/L. In assay [3] (high lipid control 3.28 ± 0.79), the TG came to 2.08 ± 0.82 mmol/L.

In assay [3], `CC(C)OC(=O)C(C)(C)Oc1ccc(C(=O)c2ccc(Cl)cc2)cc1` [Fenofibrate] had an HDL-C of 1.22 ± 0.43 mmol/L, an LDL-C of 0.89 ± 0.42 mmol/L and a TC of 2.85 ± 0.45 mmol/L. In addition, in assay [4], the LPL activity was 16.95 ± 3.02 g FFA/mL supernatant · h. Further, in assay [2], the HDL-C was 1.06 ± 0.26 mmol/L, the TG worked out at 1.88 ± 0.82 mmol/L, the LDL-C is 4.99 ± 2.25 mmol/L and the TC worked out at 19.89 ± 2.62 mmol/L. The same compound returned an Ox-LDL in assay [2] of 0.99 ± 0.25 mmol/L.
